The target in the test is human F508del-CFTR (Homo sapiens, UniProt P13569, DEL508-508). The test can be described thus: F508del-CFTR cell surface expression (corrector activity), DiscoveRx ß-galactosidase complementation chemiluminescence assay in recombinant U2OS cell line.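 Also: U2OS cells co-expressing ProLink-tagged F508del-CFTR and a membrane-anchored enzyme acceptor, where more surface CFTR restores β-galactosidase activity measured by chemiluminescence.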
Setting [1] is: U2OS, in relation to Emax of corrector lumacaftor (=100%), arithmetic mean values.
[2] abbreviates: EC50, F508del-CFTR cell surface expression, U2OS cells, 16h compound incubation, geomean values.
Setting [3] is: in relation to Emax of corrector lumacaftor (=100%), arithmetic mean values.
Where [4] appears, read: EC50, F508del-CFTR cell surface expression, U2OS cell line, 16h compound incubation, geomean values.
Where [5] appears, read: U2OS, in relation to the Emax of the corrector lumacaftor (=100%), U2OS cell line, 16h compound incubation, arithmetic mean values.

Molecules are shown by their SMILES. Where only a bound is given, the exact number is not on record here.

human F508del-CFTR, sequence (P13569 with tags, fused parts or gaps DEL508-508): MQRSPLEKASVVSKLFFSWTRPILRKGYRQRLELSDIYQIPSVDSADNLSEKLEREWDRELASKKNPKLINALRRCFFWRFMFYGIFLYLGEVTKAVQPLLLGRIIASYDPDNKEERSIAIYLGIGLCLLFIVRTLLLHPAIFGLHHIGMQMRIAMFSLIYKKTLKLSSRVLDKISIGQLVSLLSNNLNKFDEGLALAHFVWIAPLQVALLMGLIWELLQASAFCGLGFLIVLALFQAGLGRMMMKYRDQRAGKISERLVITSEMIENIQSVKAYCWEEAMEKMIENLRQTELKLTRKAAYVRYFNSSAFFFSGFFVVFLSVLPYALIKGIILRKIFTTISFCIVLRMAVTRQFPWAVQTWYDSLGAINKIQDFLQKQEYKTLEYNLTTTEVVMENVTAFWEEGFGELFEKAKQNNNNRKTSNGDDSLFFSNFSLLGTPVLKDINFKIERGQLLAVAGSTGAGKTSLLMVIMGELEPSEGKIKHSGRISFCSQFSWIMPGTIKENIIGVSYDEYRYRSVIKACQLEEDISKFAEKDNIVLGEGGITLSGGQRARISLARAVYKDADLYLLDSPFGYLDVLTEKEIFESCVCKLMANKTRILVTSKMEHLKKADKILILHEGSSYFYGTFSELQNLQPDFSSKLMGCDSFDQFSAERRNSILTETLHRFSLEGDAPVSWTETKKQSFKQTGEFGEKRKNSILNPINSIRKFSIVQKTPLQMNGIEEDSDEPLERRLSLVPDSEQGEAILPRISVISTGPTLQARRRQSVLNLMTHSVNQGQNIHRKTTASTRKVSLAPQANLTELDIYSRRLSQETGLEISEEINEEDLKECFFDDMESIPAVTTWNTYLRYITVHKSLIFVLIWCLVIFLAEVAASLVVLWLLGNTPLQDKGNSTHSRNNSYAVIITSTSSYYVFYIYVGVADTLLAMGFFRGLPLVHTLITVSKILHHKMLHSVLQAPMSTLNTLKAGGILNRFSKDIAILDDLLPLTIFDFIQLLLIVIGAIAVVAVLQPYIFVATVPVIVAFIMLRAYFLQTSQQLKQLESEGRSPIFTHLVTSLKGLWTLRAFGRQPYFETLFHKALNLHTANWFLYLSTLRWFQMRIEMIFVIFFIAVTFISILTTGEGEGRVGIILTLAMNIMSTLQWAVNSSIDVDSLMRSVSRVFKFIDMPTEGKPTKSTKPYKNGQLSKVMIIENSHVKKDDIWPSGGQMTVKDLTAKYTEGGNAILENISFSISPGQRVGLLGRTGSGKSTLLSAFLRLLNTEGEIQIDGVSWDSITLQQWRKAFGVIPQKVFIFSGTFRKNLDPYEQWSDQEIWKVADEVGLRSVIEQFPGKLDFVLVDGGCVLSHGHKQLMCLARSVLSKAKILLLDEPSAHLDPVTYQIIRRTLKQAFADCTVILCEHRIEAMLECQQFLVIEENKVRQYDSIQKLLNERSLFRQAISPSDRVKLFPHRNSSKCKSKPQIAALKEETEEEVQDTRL

Broadly, the Emax is the maximal effect, on the per cent scale that the assay sets. On to `COc1cccc(CCNC(=O)[C@@H]2CC(=O)N(C)[C@@H](CC(C)C)C(=O)N(C)[C@@H](CO)C(=O)N[C@H](Cc3ccccc3)COc3ccc4ccccc4c3C(=O)N2)c1` (racemic) [Example 718, (3S,7S,10RS,13R)-13-benzyl-10-(hydroxymethyl)-7-isobutyl-N-(3-methoxyphenethyl)-6,9-dimethyl-1,5,8,11-tetraoxo-1,2,3,4,5,6,7,8,9,10,11,12,13,14-tetradecahydronaphtho[1,2-p][1]oxa[4,7,10,14]tetraazacycloheptadecine-3-carboxamide], for which the Emax under setting [1] is 272%.

A word on the EC50: it is the midpoint of the concentration-response curve. In the case of `Cc1cc(CCNC(=O)[C@@H]2CC(=O)N(C)[C@@H](CC(C)C)C(=O)N(C)[C@@H](COC(C)(C)C)C(=O)N[C@H](Cc3ccccc3)COc3ccc4ccccc4c3C(=O)N2)on1` (racemic) [Example 719, (3S,7S,10RS,13R)-13-benzyl-10-(tert-butoxymethyl)-7-isobutyl-6,9-dimethyl-N-(2-(3-methylisoxazol-5-yl)ethyl)-1,5,8,11-tetraoxo-1,2,3,4,5,6,7,8,9,10,11,12,13,14-tetradecahydronaphtho[1,2-p][1]oxa[4,7,10,14]tetraazacycloheptadecine-3-carboxamide], the half-maximal effective concentration (EC50) under setting [2] came out at 124 nM. Further, the maximum response (Emax) under setting [1] came out at 313%.

Take `Cc1cc(CCNC(=O)[C@@H]2CC(=O)N(C)[C@@H](CC(C)C)C(=O)N(C)[C@@H](CO)C(=O)N[C@H](Cc3ccccc3)COc3ccc4ccccc4c3C(=O)N2)on1` (racemic) [Example 720, (3S,7S,10RS,13R)-13-benzyl-10-(hydroxymethyl)-7-isobutyl-6,9-dimethyl-N-(2-(3-methylisoxazol-5-yl)ethyl)-1,5,8,11-tetraoxo-1,2,3,4,5,6,7,8,9,10,11,12,13,14-tetradecahydronaphtho[1,2-p][1]oxa[4,7,10,14]tetraazacycloheptadecine-3-carboxamide]: the EC50 under setting [2] came out at 881 nM. Moreover, under setting [1], the Emax was 24%.

Take `Cc1nc2ccc3c(c2o1)C(=O)N[C@H](C(=O)NCCc1cccc([C@H](C)O)c1)CC(=O)N(C)[C@@H](CC(C)C)C(=O)N(CCC1CCCCC1)CC(=O)N[C@H](Cc1ccccc1)CO3` (racemic) [Example 728, (8R,14S,18S)-8-benzyl-12-(2-cyclohexylethyl)-N-(3-((RS)-1-hydroxyethyl)phenethyl)-14-isobutyl-2,15-dimethyl-10,13,16,20-tetraoxo-7,8,9,10,11,12,13,14,15,16,17,18,19,20-tetradecahydrooxazolo[4′,5′:5,6]benzo[1,2-p][1]oxa[4,7,10,14]tetraazacycloheptadecine-18-carboxamide]: under setting [2], the 50% effective concentration (EC50) was determined as 235 nM. Also, the maximal effect (Emax) under setting [1] was 232%.

Turning to `COc1nccc2c1C(=O)NC(C(=O)NCCc1cc(C3CC3)no1)CC(=O)N(C)C(CC(C)C)C(=O)N(C)C(CC1CCC(F)(F)CC1)C(=O)NC(Cc1ccccc1)CO2` (single isomer, unassigned) [Example 661], under setting [2], the concentration for a half-maximal effect (EC50) is 421 nM. The maximal effect (Emax) under setting [3] was determined as 247%.

As for `COc1nccc2c1C(=O)NC(C(=O)NCCc1cc(C3CC3)no1)CC(=O)N(C)C(CC(C)C)C(=O)N(C)C(CC1CCC(F)(F)CC1)C(=O)NC(Cc1ccccc1)CO2` (single isomer, unassigned) [Example 662], the EC50 under setting [2] stood at 124 nM. For the same molecule, the Emax under setting [3] was found to be 297%.

For `COc1nccc2c1C(=O)N[C@H](C(=O)NCCc1cc(C3CC3)no1)CC(=O)N(C)[C@@H](CC(C)C)C(=O)N1CCC3(CC3)C[C@@H]1C(=O)N[C@H](Cc1ccccc1)CO2` (single isomer, unassigned) [Example 669, (7′S,11′S,17a′S,20′R)-20′-benzyl-N-(2-(3-cyclopropylisoxazol-5-yl)ethyl)-11′-isobutyl-4′-methoxy-10′-methyl-5′,9′,12′,18′-tetraoxo-5′,6′,7′,8′,9′,10′,11′,12′,14′,15′,17′,17a′,18′,19′,20′,21′-hexadecahydrospiro[cyclopropane-1,16′-dipyrido[2,1-f:3′,4′-p][1]oxa[4,7,10,14]tetraazacycloheptadecine]-7′-carboxamide], under setting [2], the 50% effective concentration (EC50) was 856 nM. The maximal response (Emax) under setting [1] amounted to 230%.

Consider `COc1nccc2c1C(=O)N[C@H](C(=O)NCCc1cc(C3CC3)no1)CC(=O)N(C)[C@@H](CC(C)C)C(=O)N1CC[C@@H](c3ccccc3)C[C@H]1C(=O)N[C@H](Cc1ccccc1)CO2` (single isomer, unassigned) [Example 671], for which the concentration giving a half-maximal response (EC50) under setting [2] was found to be 235 nM. For the same molecule, the maximal effect (Emax) under setting [1] was determined as 179%.

On to `CC(C)C[C@H]1C(=O)N2CC[C@H](c3ccccc3)C[C@H]2C(=O)N[C@H](Cc2ccccc2)COc2cnc3ccccc3c2C(=O)N[C@H](C(=O)NCCc2cc(C3CC3)no2)CC(=O)N1C` (single isomer, unassigned) [Example 674], for which the EC50 under setting [2] was found to be 262 nM. Under setting [1], the Emax is 133%.

For the molecule `COc1cc(CCNC(=O)[C@@H]2CC(=O)N(C)[C@@H](CC(C)C)C(=O)N3CCCC[C@@H]3C(=O)N[C@H](Cc3ccccc3)COc3ccc4ncc(F)cc4c3C(=O)N2)on1` (single isomer, unassigned) [Example 899], the concentration for a half-maximal effect (EC50) (EC50, F508del-CFTR cell surface expression, U2OS cells, 16h compound incubation, geomean of several measurements) was determined as 819 nM. Moreover, the Emax (U2OS, in relation to the Emax of the corrector lumacaftor (=100%), U2OS cells, 16h compound incubation, arithmetic mean) turned out to be 294%.

`CCC(=O)CCCCC[C@@H]1NC(=O)[C@H]2CCCCN2C(=O)[C@H]([C@@H](C)CC)NC(=O)[C@H](Cc2cn(OC)c3ccccc23)NC1=O` [Apicidin, reference compound]: the half-maximal effective concentration (EC50) (EC50, recombinant U2OS cell line (DiscoveRx) expressing PK-tagged human F508del-CFTR, 16h compound incubation, same conditions as example compounds) was > 20000 nM.

Consider `CC(C)C[C@H]1C(=O)N(CCC2CCCCC2)CC(=O)N[C@H](Cc2ccccc2)COc2cc3c(cc2C(=O)N[C@H](C(=O)NCCc2ccc4c(c2)OCO4)CC(=O)N1C)OCO3` [Example 2, (7R,13S,17S)-N-(2-(benzo[d][1,3]dioxol-5-yl)ethyl)-7-benzyl-11-(2-cyclohexylethyl)-13-isobutyl-14-methyl-9,12,15,19-tetraoxo-6,7,8,9,10,11,12,13,14,15,16,17,18,19-tetradecahydro-[1,3]dioxolo[4′,5′:4,5]benzo[1,2-p][1]oxa[4,7,10,14]tetraazacycloheptadecine-17-carboxamide], for which the EC50 under setting [4] came to 110 nM. Moreover, under setting [5], the Emax came to 150%.

As for `COc1cc2c(cc1OC)C(=O)N[C@H](C(=O)NCCc1ccc3c(c1)CCCO3)CC(=O)N(C)[C@@H](CC(C)C)C(=O)N(C)CC(=O)N[C@H](Cc1ccccc1)CO2` [Example 3, (3R,9S,13S)-3-benzyl-N-(2-(chroman-6-yl)ethyl)-9-isobutyl-17,18-dimethoxy-7,10-dimethyl-5,8,11,15-tetraoxo-2,3,4,5,6,7,8,9,10,11,12,13,14,15-tetradecahydrobenzo[p][1]oxa[4,7,10,14]tetraazacycloheptadecine-13-carboxamide], the EC50 under setting [4] is 816 nM. For the same molecule, under setting [5], the Emax is 151%.

For `COc1cc2c(cc1OC)C(=O)N[C@H](C(=O)NCCc1ccc3ccoc3c1)CC(=O)N(C)[C@@H](CC(C)C)C(=O)N(C)CC(=O)N[C@H](Cc1ccccc1)CO2` [Example 4, (3R,9S,13S)-N-(2-(benzofuran-6-yl)ethyl)-3-benzyl-9-isobutyl-17,18-dimethoxy-7,10-dimethyl-5,8,11,15-tetraoxo-2,3,4,5,6,7,8,9,10,11,12,13,14,15-tetradecahydrobenzo[p][1]oxa[4,7,10,14]tetraazacycloheptadecine-13-carboxamide], the 50% effective concentration (EC50) under setting [4] stood at 673 nM. Under setting [5], the maximal effect (Emax) was 195%.

In the case of `CN1CC(=O)N[C@H](Cc2ccccc2)COc2cc3c(cc2C(=O)N[C@H](C(=O)NCCc2ccc4c(c2)OCO4)CC(=O)N(C)[C@@H](CC2CCC2)C1=O)OCO3` [Example 7, (7R,13S,17S)-N-(2-(benzo[d][1,3]dioxol-5-yl)ethyl)-7-benzyl-13-(cyclobutylmethyl)-11,14-dimethyl-9,12,15,19-tetraoxo-6,7,8,9,10,11,12,13,14,15,16,17,18,19-tetradecahydro-[1,3]dioxolo[4′,5′:4,5]benzo[1,2-p][1]oxa[4,7,10,14]tetraazacycloheptadecine-17-carboxamide], the EC50 under setting [4] was determined as 398 nM. Further, the maximal effect (Emax) under setting [5] was 118%.

`COc1cc2c(cc1OC)C(=O)N[C@H](C(=O)NCCc1ccc3c(c1)OCCN3C)CC(=O)N(C)[C@@H](CC(C)C)C(=O)N(C)CC(=O)N[C@H](Cc1ccccc1)CO2` [Example 8, (3R,9S,13S)-3-benzyl-9-isobutyl-17,18-dimethoxy-7,10-dimethyl-N-(2-(4-methyl-3,4-dihydro-2H-benzo[b][1,4]oxazin-7-yl)ethyl)-5,8,11,15-tetraoxo-2,3,4,5,6,7,8,9,10,11,12,13,14,15-tetradecahydrobenzo[p][1]oxa[4,7,10,14]tetraazacycloheptadecine-13-carboxamide]: the concentration for a half-maximal effect (EC50) under setting [4] came to 887 nM. In addition, under setting [5], the Emax turned out to be 210%.

In the case of `COc1cccc(CCNC(=O)[C@@H]2CC(=O)N(C)[C@@H](CC(C)C)C(=O)N3CCCC[C@@H]3C(=O)N[C@H](Cc3ccccc3)COc3ccc4ncn(C)c4c3C(=O)N2)c1` [Example 17, (8S,12S,18aR,21R)-21-benzyl-12-isobutyl-N-(3-methoxyphenethyl)-5,11-dimethyl-6,10,13,19-tetraoxo-6,7,8,9,10,11,12,13,16,17,18,18a,19,20,21,22-hexadecahydro-5H,15H-imidazo[4′,5′:5,6]benzo[1,2-p]pyrido[2,1-f][1]oxa[4,7,10,14]tetraazacycloheptadecine-8-carboxamide], the 50% effective concentration (EC50) under setting [4] came out at 466 nM. Moreover, under setting [5], the Emax amounted to 180%.
